This note sets out measurements from BindingDB's records for PubMed 35261239 (Bristol-Myers Squibb Company, 2022).

As usually defined, the IC50 is the concentration needed to halve the response being measured. A low value points to greater potency in that assay.

Structures are written as SMILES.

This experiment concerns the target TGF-beta-activated kinase 1 (MAP3K7). Briefly: Inhibition of TAK (unknown origin).

As to `COC(=O)Nc1cc(-c2cnc(OC[C@@](C)(N)CC(C)C)c(C#N)c2)ccn1`, the midpoint of inhibition, the IC50, lay at 260 nM.

As to `COC(=O)Nc1cc(-c2cnc(OC[C@@](C)(N)CC(C)C)c(Cl)c2)ccn1`, the IC50 worked out at 120 nM.
